10 compounds from BindingDB's records for doi:10.1021/jm00147a030 (1985) can be followed below.

Structures are written as SMILES.

One may read the IC50 as the concentration that gives 50% inhibition. Read a high IC50 as weaker potency in that assay.

For this experiment, the target named is Angiotensin-converting enzyme (Cavia porcellus). As to the kind of experiment: In vitro inhibitory activity against Angiotensin I converting enzyme from unpurified guinea pig serum.
`CCOC(=O)C(CCc1ccccc1)OC(C)C(=O)N1C(C(=O)O)CC2CCCCC21` (stereo not given): the half-maximal inhibitory concentration (IC50) was found to be 24 nM.
To `CCOC(=O)C(CCc1ccccc1)[S+]([O-])C(C)C(=O)N1C2CCCCC2C[C@H]1C(=O)O` (stereo not given in full) belongs 220 nM.
Consider `CC(OC(CCc1ccccc1)C(=O)O)C(=O)N1Cc2ccccc2CC1C(=O)O` (stereo not given), for which the half-inhibitory concentration (IC50) amounted to 86 nM.
With `CCOC(=O)C(CCc1ccccc1)SC(C)C(=O)N1CSC[C@@H]1C(=O)O` (stereo not given in full) the figure was 4800 nM.
To `CC(SC(CCc1ccccc1)C(=O)O)C(=O)N1C2CCCCC2C[C@H]1C(=O)O` (stereo not given in full) belongs 140 nM; to `CCOC(=O)C(CCc1ccccc1)OC(C)C(=O)N1CCCC1C(=O)O` (stereo not given), 220 nM; to `CC(SC(CCc1ccccc1)C(=O)O)C(=O)N1CCC[C@H]1C(=O)O` (stereo not given in full), 580 nM.
With `CCOC(=O)C(CCc1ccccc1)OC(C)C(=O)N1Cc2ccccc2CC1C(=O)O` (stereo not given) the figure was 14 nM; with `CCOC(=O)C(CCc1ccccc1)SC(C)C(=O)N1Cc2ccccc2C[C@H]1C(=O)O` (stereo not given in full), 460 nM.
`CCOC(=O)C(CCc1ccccc1)SC(C)C(=O)N1CCCC1C(=O)O` (stereo not given) had an IC50 of 2900 nM.
